# Experimental data: patent US20170050966A1, “INHIBITING THE TRANSIENT RECEPTOR POTENTIAL A1 ION CHANNEL” (HYDRA BIOSCIENCES, INC., priority 2014, published 2017)
# Where two headings read alike, the source gives them in different places.
# Legend:
# dogTRPA1 = dogTRPA1 (Canis lupus familiaris, UniProt A0A8I3Q1Q7); assay: TRPA1 IC50, whole-cell patch clamp; assay type: cell-based, Dog; details: dogTRPA1, 10 μM AITC; read-out: IC50 Inward current
# Text: The change in IC50 block in the presence of albumin and plasma was also studied. It is assumed that the pharmacological effect of a drug correlates to unbound plasma levels, which is known as the “free drug hypothesis”. The aim of this study was to estimate the change in IC50 for block of human TRPA1 (hTRPA1) by Compound 2 in the presence of physiologically relevant concentrations of albumin and plasma (see Table 7). The human form of TRPA1 was used to assess protein binding in all species due to technical issues. The whole-cell patch clamp technique as described in del Camino, D. et al. J Neurosci 74 (2010) 30:15165 was employed to measure current through hTRPA1 upon activation by allyl isothiocyanate (AITC), the active ingredient in mustard oil, in the presence of 1% (w/v) serum albumin or 25% (v/v) plasma from various species including human plasma (hPlasma), human serum albumin (HSA), rat plasma (rPlasma), rat serum albumin (RSA), dog plasma, and sheep serum albumin (sheepSA). […]
# Data for TRPA1 inhibition was obtained by this method for the indicated compounds of Formula (I), with the relevant data included in Table 14 below. All currents were recorded in whole-cell configuration using EPC-9 and EPC-10 amplifiers and Patchmaster software (HEKA). […]
# human TRPA1 (hTRPA1) = target: T1, human TRPA1 (hTRPA1) (Homo sapiens, UniProt O75762); assay: hTRPA1 IC50 in presence of albumin and plasma, whole-cell patch clamp; assay type: cell-based; details: for IC50: 20 μM AITC
# T1 construct: expressed in transfected cells
# T1 sequence (O75762 whole entry): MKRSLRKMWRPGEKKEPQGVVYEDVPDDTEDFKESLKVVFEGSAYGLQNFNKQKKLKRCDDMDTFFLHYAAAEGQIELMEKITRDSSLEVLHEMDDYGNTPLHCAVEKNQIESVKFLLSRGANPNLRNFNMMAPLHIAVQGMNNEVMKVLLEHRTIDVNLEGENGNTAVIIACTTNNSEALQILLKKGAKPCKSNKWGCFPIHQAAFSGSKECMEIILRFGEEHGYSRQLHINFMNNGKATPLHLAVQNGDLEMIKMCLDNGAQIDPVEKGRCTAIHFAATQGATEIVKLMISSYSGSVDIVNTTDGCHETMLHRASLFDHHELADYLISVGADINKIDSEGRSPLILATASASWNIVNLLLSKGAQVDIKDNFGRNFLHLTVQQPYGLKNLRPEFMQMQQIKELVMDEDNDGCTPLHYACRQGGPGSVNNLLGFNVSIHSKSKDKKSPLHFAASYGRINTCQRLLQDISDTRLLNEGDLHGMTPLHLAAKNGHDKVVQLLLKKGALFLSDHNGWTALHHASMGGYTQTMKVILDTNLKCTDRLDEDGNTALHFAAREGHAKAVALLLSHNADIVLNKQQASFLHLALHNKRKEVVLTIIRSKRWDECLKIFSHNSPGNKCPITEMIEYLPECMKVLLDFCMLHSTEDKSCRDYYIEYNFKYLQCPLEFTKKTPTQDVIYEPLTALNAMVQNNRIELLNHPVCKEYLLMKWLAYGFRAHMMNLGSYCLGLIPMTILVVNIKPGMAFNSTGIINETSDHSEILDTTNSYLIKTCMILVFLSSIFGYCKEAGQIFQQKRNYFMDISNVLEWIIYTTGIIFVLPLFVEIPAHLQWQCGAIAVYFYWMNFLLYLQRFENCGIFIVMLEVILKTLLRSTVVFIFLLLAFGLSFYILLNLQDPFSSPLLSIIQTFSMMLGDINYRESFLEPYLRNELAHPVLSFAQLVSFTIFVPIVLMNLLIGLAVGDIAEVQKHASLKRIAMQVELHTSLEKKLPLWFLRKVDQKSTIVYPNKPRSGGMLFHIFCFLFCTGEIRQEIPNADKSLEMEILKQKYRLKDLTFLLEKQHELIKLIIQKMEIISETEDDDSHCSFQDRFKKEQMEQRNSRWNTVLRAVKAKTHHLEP
# Text: The change in IC50 block in the presence of albumin and plasma was also studied. It is assumed that the pharmacological effect of a drug correlates to unbound plasma levels, which is known as the “free drug hypothesis”. The aim of this study was to estimate the change in IC50 for block of human TRPA1 (hTRPA1) by Compound 2 in the presence of physiologically relevant concentrations of albumin and plasma (see Table 7). The human form of TRPA1 was used to assess protein binding in all species due to technical issues. The whole-cell patch clamp technique as described in del Camino, D. et al. J Neurosci 74 (2010) 30:15165 was employed to measure current through hTRPA1 upon activation by allyl isothiocyanate (AITC), the active ingredient in mustard oil, in the presence of 1% (w/v) serum albumin or 25% (v/v) plasma from various species including human plasma (hPlasma), human serum albumin (HSA), rat plasma (rPlasma), rat serum albumin (RSA), dog plasma, and sheep serum albumin (sheepSA). Compound 2 was sub-diluted from a 10 mM stock in DMSO to 10 and 100 μM in DMSO, then diluted into Ringer solution at the concentrations referenced in Table 7 and Table 8.
# [1] = Solubility in fasted-state simulated intestinal fluid (FaSSIF); assay type: physicochemical; details: thermodynamic from solid, pH 6.5, 25° C., read-out: Solubility in the FaSSIF model
# Description: Solubility was also determined in a fasted-state simulated intestinal fluid (FaSSIF) assay. Briefly, Compound 2 was added to the FaSSIF medium (bile salts, NaOH (0.420 g), NaH2PO4 (3.438 g), NaCl (6.186 g), pH to 6.5, at 25° C., and brought to a 1 L volume) agitated for 30 hours and sampled, centrifuged, and analyzed by UPLC. Solubility in the FaSSIF model was determined to be 1.19 mg/ml.
# [2] = Oral PK and bioavailability of micronized Compound 2 suspension; assay type: in vivo, dogs (beagles); details: fasted dogs
# Description: Additional studies were conducted with micronized Compound 2 in rat, dogs (beagles), and cynomolgus monkeys. Animals received a 10 mg/kg dose oral dose of compound formulated as a suspension in 0.5% methyl cellulose in water for injection at a target concentration of 1 mg/mL, and administered a dose volume of 10 mL/kg by oral gavage in rats or fasted dogs and via oral delivery in fasted cynomolgus monkeys. The % F for the rats in these studies was 85%, 36% for the dogs, and 19% for the monkeys. FIG. 11 depicts the pharmacokinetic profile for these species.
# Three studies were conducted in dogs (beagles). In one study, three fasted dogs were administered 10 mg/kg of a suspension of micronized Compound 2 by gavage. Blood samples were collected from these dogs before dosing and at 0.25, 0.50, 1, 2, 4, 6, 8, 12, and 24 hours post-administration. Blood samples were analyzed to determine plasma levels of Compound 2 by LC/MS/MS. In subsequent studies, pharmacokinetic (PK) parameters were determined following a single oral dose of suspensions of micronized Compound 2 (recrystallized from ethanol) administered to fasted dogs at dose levels of 10, 100, 300, 600, or 1000 mg/kg. Blood samples were taken before dosing and at 0.5, 1, 2, 4, 8, 12, 24 and 48 hours post-dosing and analyzed to determine plasma levels of Compound 2.
# Chain of dogTRPA1 (A0A8I3Q1Q7 1-1118): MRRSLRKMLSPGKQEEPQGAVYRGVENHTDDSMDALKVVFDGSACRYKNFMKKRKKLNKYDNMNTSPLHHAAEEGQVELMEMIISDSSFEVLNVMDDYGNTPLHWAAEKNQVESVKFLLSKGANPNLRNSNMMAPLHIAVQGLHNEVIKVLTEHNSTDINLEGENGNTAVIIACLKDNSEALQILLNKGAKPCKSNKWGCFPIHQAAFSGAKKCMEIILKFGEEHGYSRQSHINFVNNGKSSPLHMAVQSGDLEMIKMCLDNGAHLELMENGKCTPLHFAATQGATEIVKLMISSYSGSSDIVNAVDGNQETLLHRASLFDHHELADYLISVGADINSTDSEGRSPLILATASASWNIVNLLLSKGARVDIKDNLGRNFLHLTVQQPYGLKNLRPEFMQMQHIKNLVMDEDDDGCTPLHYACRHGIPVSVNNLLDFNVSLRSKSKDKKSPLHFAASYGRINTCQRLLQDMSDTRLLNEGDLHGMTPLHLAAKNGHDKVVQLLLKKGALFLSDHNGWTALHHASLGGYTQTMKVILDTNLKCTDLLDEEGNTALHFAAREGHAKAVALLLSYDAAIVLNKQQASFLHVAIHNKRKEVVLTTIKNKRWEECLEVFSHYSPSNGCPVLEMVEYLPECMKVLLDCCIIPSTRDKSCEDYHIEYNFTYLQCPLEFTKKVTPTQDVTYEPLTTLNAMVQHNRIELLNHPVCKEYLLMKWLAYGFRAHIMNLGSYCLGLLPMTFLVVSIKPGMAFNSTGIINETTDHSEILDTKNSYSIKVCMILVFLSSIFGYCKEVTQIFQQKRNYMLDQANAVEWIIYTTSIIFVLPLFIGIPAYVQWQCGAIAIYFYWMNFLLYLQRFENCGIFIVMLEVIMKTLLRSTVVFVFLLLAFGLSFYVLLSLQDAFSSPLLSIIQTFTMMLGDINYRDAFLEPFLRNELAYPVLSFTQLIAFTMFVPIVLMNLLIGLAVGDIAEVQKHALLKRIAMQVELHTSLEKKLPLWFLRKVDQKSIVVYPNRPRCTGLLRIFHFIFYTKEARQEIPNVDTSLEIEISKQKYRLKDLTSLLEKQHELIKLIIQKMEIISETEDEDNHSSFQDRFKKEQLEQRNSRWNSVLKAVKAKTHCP
smiles,measurement,setting,value
"C[C@@H](C(=O)Nc1ccnc(-c2cnc(N3CCC[C@H]3C(F)(F)F)nc2)n1)n1cnc2c1c(=O)n(C)c(=O)n2C [Compound 2, (S)-2-(1,3-dimethyl-2,6-dioxo-2,3-dihydro-1H-purin-7(6H)-yl)-N-(2′-((S)-2-(trifluoromethyl)pyrrolidin-1-yl)-[2,5′-bipyrimidin]-4-yl)propanamide]",IC50,dogTRPA1,0.0235 ± 0.0064 µM
same,IC50,"human TRPA1 (hTRPA1); 1% (w/v) rat serum albumin, read-out: IC50 + RSA",0.095 ± 0.009 µM
same,IC50,"human TRPA1 (hTRPA1); 1% (w/v) sheep serum albumin, read-out: IC50 + SheepSA",0.07 ± 0.01 µM
same,IC50,"human TRPA1 (hTRPA1); 25% (v/v) dog plasma, read-out: IC50 + dog Plasma",0.221 ± 0.054 µM
same,IC50,"human TRPA1 (hTRPA1); 25% (v/v) human plasma, read-out: IC50 + hPlasma",0.095 ± 0.002 µM
same,IC50,"human TRPA1 (hTRPA1); 25% (v/v) rat plasma, read-out: IC50 + rPlasma",0.068 ± 0.008 µM
same,Fold Shift,human TRPA1 (hTRPA1); IC50 + RSA,14X
same,Fold Shift,human TRPA1 (hTRPA1); IC50 + SheepSA,10X
same,Fold Shift,human TRPA1 (hTRPA1); IC50 + dog Plasma,32X
same,Fold Shift,human TRPA1 (hTRPA1); IC50 + hPlasma vs IC50 in absence of serum,14 X
same,Fold Shift,human TRPA1 (hTRPA1); IC50 + rPlasma,10X
same,binding to plasma proteins based on the shift in IC50,human TRPA1 (hTRPA1); across the four species tested,90-97%
same,time to complete block and reversal upon washout,human TRPA1 (hTRPA1); hTRPA1 currents,2 to 3 min
same,solubility at 30 h,[1],1190 µg/mL
same,bioavailability,"[2]; beagle, dog, plasma, 10 mg/kg oral, micronized suspension",36%
same,Exposures on an AUC and Cmax basis versus dose,[2]; single oral dose 10 to 1000 mg/kg,increased with doses up to 600 mg/kg
